Experimental data: patent US9248928B2, “Methods of manufacturing contact lenses for delivery of beneficial agents” (CooperVision International Holding Company, LP, priority 2012, dated 2016)
Counter-ions that a name gives are not always drawn. Like-named read-outs stand apart in the source and are kept apart here.

Columns and labels:
[1] = Autoclave stability of cationic agents in packaging solution
Procedure: (§1) As used herein, a cationic agent is considered to be autoclave-stable in a given package and packaging solution if there is less than 2% degradation of the cationic agent after it is autoclaved two times in its intended package and packaging solution without a lens present, wherein the autoclave conditions used are 120° C. for 30 minutes at about 17 psi. A reference to 2× or 3× autoclave of a package is intended to include a step of allowing the package to cool to room temperature before and after the 2nd, and if applicable, 3rd autoclave treatments. The amount of degradation is determined using an HPLC method appropriate for the cationic agent being tested. Alternatively or additionally, a cationic agent is considered autoclave-stable in a given packaging solution if the percentage of cationic agent that can be extracted from the lens after 2× autoclave is more than 95% of the percentage of cationic agent that can be extracted from a non-autoclaved lens packaged in the same packaging solution and kept at room temperature for 24 hours, where the extraction method used is substantially as described in Example 4, or an equivalent method. The percentage of cationic agent extracted from the autoclaved (test) and non-autoclaved (control) lenses is determined relative to the amount of cationic agent taken up by the test and control lenses, respectfully. Thus, for example, a control lens may take up 100 μg of a cationic agent from a packaging solution after 24 hours at room temperature and 97 μg (i.e. 97%) of the cationic agent can be extracted from the lens. If the corresponding test (2× autoclaved) lens takes up 120 μg of the cationic agent from the packaging solution, but only 108 μg (i.e. 90%) of the cationic agent is extracted using the same extraction method as for the control lens, then there is considered to be a 7% difference between the amount cationic agent extracted from control and test lenses.
Both εPLL and epinastine have primary amine groups, whereas olopatadine and ketotifen have none. […] TRIS buffer drops in pH with increased temperature, down to a pH of about 4.3 during autoclave. […] Thus, in one example, the packaging solution used in the method of manufacturing the contact lenses described herein is temperature-sensitive. By temperature-sensitive, it is meant that the pH of the packaging solution drops by at least one (e.g a drop from pH 7.5 to pH 6.5) during autoclave at 120° C. for 30 minutes. In specific examples, the pH of the temperature-sensitive packaging solution drops during autoclave by at least 1.5, 2.0, or 2.5. Exemplary temperature-sensitive buffers include {[tris(hydroxymethyl)methyl]amino}propanesulfonic acid (TAPS), N,N-bis(21-hydroxyethyl)glycine (Bicine), tris(hycroxymethyl)methylamine (TRIS), N-tris(hydroxymethyl)methylglycine (Tricine), {[tris(hydroxymethyl)methyl]amino}ethanesulfonic acid (TES), 3-(N-morpholino)propanesulfonic acid (MOPS), and the like. […] In one such example, the packaging solution comprises a TRIS buffer. In a further example, the cationic agent comprises a primary amine. In yet a further example, the cationic agent is epinastine or εPLL and the packaging solution comprises a TRIS buffer.

[2] = for % of the epinastine taken up by the lens that released (extracted): PBS
Procedure: as §1
The packaged lenses were either autoclaved once or twice for 20 minutes at 120° C. and then kept at room temperature overnight, or kept at room temperature overnight without autoclaving. 1.2 ml PBS comprising 200 μg/ml epinastine HCL was autoclaved once or twice in a glass vial without a lens (autoclave control solution).
Each lens was blotted dry with lint-free paper, and placed in a vial containing 10 ml of an extraction medium consisting of 60 parts of 0.3% triethylamine in deionized (pH adjusted to 4.0 using phosphoric acid) and 40 parts methanol. The vials were sonicated for 30 minutes at room temperature. The lens were removed from the extraction solution and transferred to individual vials containing 5 ml of fresh extraction medium and sonicated again for 30 minutes. For each lens, the extraction media was combined to obtain 15 ml extraction medium for each lens and the amount of epinastine extracted from each lens was measured by HPLC.
The study was repeated using silicone hydrogel contact lenses prepared according to Example 1 and packaged in TRIS buffer (described above) comprising 150 μg/ml epinastine. The lenses were autoclaved 0-3 times each.

[3] = Autoclave stability of εPLL in PBS or TRIS buffered saline by HPLC; format: physicochemical; details: 500 ppm εPLL, no lens
Procedure: […] The samples were tested by HPLC at a sufficient resolution to achieve a discernable peak for each molecular weight fraction of the εPLL.

[4] = Autoclave # 0, silicone hydrogel lens, TRIS buffer with 150 μg/ml epinastine
[5] = Autoclave # 1x, silicone hydrogel lens, TRIS buffer with 150 μg/ml epinastine
[6] = Autoclave # 2x, silicone hydrogel lens, TRIS buffer with 150 μg/ml epinastine
[7] = Autoclave # 3x, silicone hydrogel lens, TRIS buffer with 150 μg/ml epinastine
[8] = Ocufilcon D lens, Autoclaved, PBS with 200 μg/ml epinastine HCl
[9] = Ocufilcon D lens, Non-Autoclaved, PBS with 200 μg/ml epinastine HCl
[10] = Silicone hydrogel lens (2x autoclave), PBS with 200 μg/ml epinastine HCl
[11] = Silicone hydrogel lens, Autoclaved, PBS with 200 μg/ml epinastine HCl
[12] = Silicone hydrogel lens, Non-Autoclaved, PBS with 200 μg/ml epinastine HCl
[13] = TBS, 9 autoclaves (so in the source)

## CN1CCC(=C2c3ccccc3CC(=O)c3sccc32)CC1 [ketotifen fumarate]
[1]
  autoclave stability: autoclave-stable

## NC1=NCC2c3ccccc3Cc3ccccc3N12 (stereo not drawn) [epinastine]
[1]; in PBS
  autoclave stability: not autoclave-stable
[1]; in TRIS buffer
  autoclave stability: autoclave-stable
[2]; [4]
  % Δ: 0.2%
  Extracted Amt.: 148.1 µg
  Δ: 0.3 µg
[2]; [5]
  % Δ: 1.3%
  Extracted Amt.: 148.6 µg
  Δ: 1.9 µg
[2]; [6]
  % Δ: 1.3%
  Extracted Amt.: 145.4 µg
  Δ: 1.9 µg
[2]; [7]
  % Δ: 3.0%
  Extracted Amt.: 85.9 µg
  Δ: 2.6 µg
[2]; [8]
  % Δ: 7%
  Extr. Amt.: 240.4 µg
  Δ (uptake minus extracted): 18.5 µg
[2]; [9]
  % Δ: 2%
  Extr. Amt.: 243.5 µg
  Δ (uptake minus extracted): 5.6 µg
[2]; [10]
  % Δ: 18%
  Extr. Amt.: 163.4 µg
  Δ (uptake minus extracted): 36.3 µg
[2]; [11]
  % Δ: 10%
  Extr. Amt.: 184.5 µg
  Δ (uptake minus extracted): 20.1 µg
[2]; [12]
  % Δ: 1%
  Extr. Amt.: 181.7 µg
  Δ (uptake minus extracted): 1.3 µg
[2]; autoclaved ocufilcon D lens
  % of the epinastine taken up by the lens that released (extracted): about 93%
[2]; autoclaved silicone hydrogel lens
  % of the epinastine taken up by the lens that released (extracted): ~90%
[2]; non-autoclaved control ocufilcon D lens
  % of the epinastine taken up by the lens that released (extracted): 98%
[2]; non-autoclaved control silicone hydrogel lens
  % of the epinastine taken up by the lens that released (extracted): 99%
[2]; silicone hydrogel lens autoclaved a second time
  % of the epinastine taken up by the lens that released (extracted): about 82%

## CN(C)CC/C=C1/c2ccccc2COc2ccc(CC(=O)O)cc21 [olopatadine HCl]
[1]
  autoclave stability: autoclave-stable

## epsilon poly-1-lysine [εPLL]
[1]; in PBS
  autoclave stability: not autoclave-stable
[1]; in TRIS buffer
  autoclave stability: autoclave-stable
[3]; PBS, 0 autoclaves
  Total # peaks: 23
  Total peak area: 16005557
[3]; PBS, 2 autoclaves
  % Area (relative to non-autoclaved): 91%
  Total # peaks: 28
  Total peak area: 14566887
[3]; PBS, 4 autoclaves
  % Area (relative to non-autoclaved): 90%
  Total # peaks: 28
  Total peak area: 14468122
[3]; TBS, 2 autoclaves
  % Area (relative to non-autoclaved): 99%
  Total # peaks: 27
  Total peak area: 14636372
[3]; TBS, 4 autoclaves
  % Area (relative to non-autoclaved): 98%
  Total # peaks: 27
  Total peak area: 14476291
[3]; [13]
  Total # peaks: 23
  Total peak area: 14800289
